Test results: PubChem BioAssay AID463074 (Broad Institute, 2010)
Active and inactive are the calls of the source.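 The calls were made as follows: active = AC50 no more than tenfold above the top dose tested, or full inhibition at every dose with a flat fit (cut at about 19 µM in these data); inconclusive = flat curve fit with inhibition between 30% and 70%, or poor fit; inactive = AC50 more than tenfold above the top dose tested.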

System: HMLE_sh_eGFP viability, CellTiter-Glo luminescence, 72 h
Assay: viability loss of HMLE_sh_eGFP cells – cell-based, luminescence, counter-screen for HMLE_sh_ECad selective toxicity project, dose response (AID 463074);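 also: counterscreen control line to flag general toxicity for the HMLE_sh_ECad screen; potency for loss of viability as luminescence drops below DMSO wells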

Row | Structure (SMILES) | AC50
1 | COc1ccc(C(=O)C2CCCN(Cc3cc(C)c(O)c(C)c3)C2)c(OC)c1 (stereo not given) | 4.9 µM
2 | CCc1ccc(N2C(=O)NC(=O)/C(=C\C=C\c3ccco3)C2=O)cc1 | 3.72 µM
3 | COc1ccccc1CNC(=S)Nc1ccc2nc(N3CCN(C)CC3)cc(C)c2c1 | 0.427 µM
4 | CC(=O)c1ccc(NC(=O)c2ccc([N+](=O)[O-])o2)cc1 | 7.8 µM
5 | COc1cc(NC2CCCCC2O)c2nc(-c3ccc(Cl)cc3)ccc2c1 (stereo not given) | 5.65 µM
6 | Cc1cc([N+](=O)[O-])ccc1-c1ccc(/C=N/NC(=O)c2ccc(Br)o2)o1 | 3.49 µM
7 | COc1ccc(/C=C/C(=O)c2ccncc2)c2ccccc12 | 10 µM
8 | CC(C)CCn1c(N)c(C(=O)NCc2cccs2)c2nc3ccccc3nc21 | 7.25 µM
9 | COc1cccc(/C=N/NC(=O)CSc2nnc(C)n2-c2ccccc2)c1O | 5.01 µM
10 | Cc1nn(Cc2ccc(C(=O)Nc3nccs3)cc2)c(C)c1Cl | 0.661 µM
11 | O=C(Nc1cc(S(=O)(=O)Nc2ccc(Cl)cc2)ccc1N1CCCCC1)c1ccc(F)cc1 | 8.97 µM
12 | Cc1cccc(CN2CCN(C(c3ccccc3)c3ccc(Cl)cc3)CC2)c1 (stereo not given) | 4.76 µM
13 | O=Cc1cc2ccccc2nc1SCc1ccc(Cl)c(Cl)c1 | 6.37 µM
14 | Cc1ccc(C2C(/C=C3/SC(=S)NC3=O)=C(c3cccs3)Oc3ccccc32)cc1 (stereo not given) | 1.21 µM
15 | CCN(CC(=O)Nc1ccc(NC(C)=O)cc1)C(=O)c1ccccc1CCc1ccccc1 | > 19.5 µM (inactive)
16 | Cc1nc([N+](=O)[O-])c(Br)n1CC(=O)c1ccc2ccccc2c1 | 6.46 µM
17 | Cc1cccc(C)c1N=Nc1c(C)cc(O)cc1C | 7.2 µM
18 | Cc1c(CCOC(=O)CC23CC4CC(CC(C4)C2)C3)sc[n+]1CC(=O)c1ccc(Br)cc1 | 2.6 µM
19 | CC/C(=C\C1CCCCC1)C(NP(=O)(c1ccccc1)c1ccccc1)c1ccccc1 (stereo not given) | 3.49 µM
20 | COc1ccc(OC)c(/C=C2\S/C(=N/NC(=O)c3ccc4ccccc4c3)NC2=O)c1 | 9.71 µM
21 | COc1ccc2nc(C)cc(N/N=C/c3ccccc3)c2c1 | 7.36 µM
22 | COc1ccc(N/N=C/c2c(O)n(-c3ccc(C)c(C)c3)c(=O)[nH]c2=O)cc1 | 1.12 µM

Row | Structure (SMILES) | AC50
23 | COc1ccc(C2=Nn3c(nnc3-c3ccccc3F)SC2)cc1OC1CCCC1 | 5.54 µM
24 | Cn1nnnc1Sc1ncnc2scc(Br)c12 | 6.78 µM
25 | CCOC(=O)CSC1=C(C#N)C(c2sccc2C)CC(=O)N1 (stereo not given) | > 19.5 µM (inactive)
26 | O=C(/C=C/Sc1ccccc1)c1ccc(Cl)cc1 | 4.56 µM
27 | C(=C\c1nc(N2CCCCCC2)c2ccccc2n1)/c1ccccc1 | 5.54 µM
28 | CC(=O)c1ccc(N2CCC(c3cc(-c4ccc(Cl)cc4Cl)n[nH]3)CC2)c([N+](=O)[O-])c1 | 4.17 µM
29 | CNC(=O)c1c(NC(=O)c2ccc(S(=O)(=O)N3CCCc4ccccc43)cc2)sc2c1CCN(C)C2 | 0.987 µM
30 | O=C(Nc1ncc(Cc2cccc([N+](=O)[O-])c2)s1)c1ccco1 | 1.44 µM
31 | CCC(C)c1ccc(NC(=O)C2CC3CCC2C3)cc1 (stereo not given) | 4.98 µM
32 | COc1cccc(N2CCN(Cc3nc4scc(-c5ccccc5)c4c(=O)[nH]3)CC2)c1 | 2.59 µM
33 | Cc1cccc(Nc2nc(N)c([N+](=O)[O-])c(N3CC(C)CC(C)C3)n2)c1 (stereo not given) | 6.75 µM
34 | CN1C(=O)/C(=C/c2cc(N=Nc3ccccc3)ccc2O)SC1=S | 1.29 µM
35 | CCc1c(C2(O)CCCCC2)[nH]c2ccc(C(F)(F)F)cc12 | 3.56 µM
36 | Cc1ccc(NC(=S)N/N=C/c2c(Cl)cccc2Cl)c(C)c1 | 0.369 µM
37 | Cc1cc(C)nc(NC(=NCCc2c[nH]c3ccccc23)NC(=O)Nc2ccc(Cl)cc2)n1 | > 19.5 µM (inactive)
38 | COc1ccc(CCC(C)NCC2CCCCC2)cc1 (stereo not given) | 1.66 µM
39 | Cc1cccc(-n2cc(-c3ccccc3)c3c(N4CCOCC4)ncnc32)c1 | 4.59 µM
40 | CC1CCN(c2nc(-c3cccnc3)nc3scc(-c4ccccc4)c23)CC1 | 1.48 µM
41 | O=c1[nH]c2ccccc2n1C1CCN(CCCC(c2ccc(F)cc2)c2ccc(F)cc2)CC1 | 6.27 µM
42 | Cc1nn(-c2nc3ccccc3s2)c(C)c1Oc1ccccc1O | 5.71 µM
43 | COc1ccc(CCNc2cc(C)nc3c(-c4ccc(Cl)cc4)c(C)nn23)cc1OC | 3.62 µM
44 | NC(=O)CC(NC(=O)Cc1ccc(Br)cc1)c1ccc(NC2CC3CCC2C3)c([N+](=O)[O-])c1 (stereo not given) | 6.74 µM

Row | Structure (SMILES) | AC50
45 | S=C1NC[C@H](Cc2ccccc2)N1CCCCC1CCCCC1 | 4.19 µM
46 | COc1ccc(-c2sc3ccc(N4CCOCC4)cc3c2C#CC2(O)CCCCC2)cc1 | 2.94 µM
47 | COc1ccc(-c2cc(=O)n(-c3ccc([N+](=O)[O-])cc3)[nH]2)cc1 | 11.3 µM
48 | COc1ccc(/C=C/C(=O)c2ccccc2)cc1Cn1nnc2ccccc21 | 6.28 µM
49 | CCN1CCN(Cc2ccc(NC(=O)c3cc(NC(=O)c4cnn(-c5ccccc5)c4N)cc(OC)c3)cc2C(F)(F)F)CC1 | 6.76 µM
50 | C=C(C)Cn1c(SCC(=O)N/N=C/c2c(O)ccc3ccccc23)nc2ccccc2c1=O | 5.62 µM
51 | Cc1nnc2sc(SCc3cccc(Cl)c3)nn2c1=O | > 19.5 µM (inactive)
52 | Cc1cccc(N/N=C/c2ccccc2O)c1 | 18.6 µM
53 | CC(=O)Nc1ccc(-c2csc(NC(=O)CCCc3cccs3)n2)cc1 | 0.986 µM
54 | CCCc1cc(-c2nc(N)ncc2-c2ccc3c(c2)OCCCO3)c(O)cc1OC | 4.18 µM
55 | CN(C)CCNC(=O)/C(=C/c1ccc(-c2ccc(Cl)cc2Cl)o1)NC(=O)c1ccccc1 | 4.78 µM
56 | Fc1ccccc1COc1ccc(-c2nnn(Cc3ccccc3F)n2)cc1 | 4.81 µM
57 | COc1cc(/C=C2/CCC/C(=C\c3cc(O)c(OC)c(Cl)c3)C2=O)cc(Cl)c1O | 0.768 µM
58 | O=C(Nc1cccc(Cl)c1)Nc1csc([N+](=O)[O-])c1 | 5.64 µM
59 | Cc1ccc(C(=O)CSc2nc(-c3ccccc3)ccc2C#N)cc1 | 2.47 µM
60 | N/C(=N\N=C/c1ccc(Br)cc1)N/N=C\c1ccc(Br)cc1 | 3.83 µM
61 | Cc1cc(-c2ccccc2)nc(N/N=C/c2ccc(O)cc2O)n1 | 7.96 µM
62 | CC(C)(C)c1ccc(OCC(=O)N/N=C/c2cc(Br)ccc2OC(=O)c2ccco2)cc1 | 3.61 µM
63 | C/C(=N\NC(N)=S)c1cc(-c2ccccc2)c(-c2ccccc2)s1 | 3.94 µM
64 | COc1cc2sc(-c3ccccc3OC)c(-c3ccc(O)cc3)c2cc1OC | 5.22 µM
65 | Nc1c(S(=O)(=O)c2cccs2)c2nc3ccccc3nc2n1/N=C/c1cccc(O)c1 | 3.87 µM
66 | CCOc1cc(NC(=O)c2ccccn2)c(OCC)cc1NC(=O)c1ccccc1 | > 19.5 µM (inactive)

Row | Structure (SMILES) | AC50
67 | S=C(Nc1ccc(Oc2ccccc2)cc1)NC1CCCCCC1 | 4.84 µM
68 | CC(C)(C)c1ccc(O)c(O)c1 | 13.3 µM
69 | Cc1cc(C)c(C(CC(=O)c2cccs2)C(C#N)C#N)c(C)c1 (stereo not given) | 5.9 µM
70 | O=S(=O)(c1ccccc1)N(CC(O)Cn1c2ccccc2c2ccccc21)c1ccccc1 (stereo not given) | 6.55 µM
71 | CCCCCc1cc(=O)oc2c(C(CCN(CC)CC)c3cc(OC)c(OC)c(OC)c3)c(OC)cc(OC)c12 (stereo not given) | 14.3 µM
72 | O=C(/C=C/c1ccc(F)cc1)c1ccccc1Br | 3.57 µM
73 | O=C1/C(=C/c2ccncc2)Oc2cc(OS(=O)(=O)c3ccccc3)ccc21 | 4.81 µM
74 | Cc1cccc(-c2nc(C#N)c(NC3CCCCC3)o2)c1 | 19.4 µM
75 | CCCCCCOc1ccc(/C(C)=N/NC2=NCCN2)cc1 | 3.69 µM
76 | CCCSc1nnc(CSc2nc3ccccc3s2)n1-c1ccccc1 | 3.01 µM
77 | CCOC(=O)c1cnc(-n2nc(C)cc2C)nc1NNc1cc(C)nc(-c2ccccc2)n1 | 2.97 µM
78 | OCCN(CCO)CC(O)COc1ccc(C23CC4CC(CC(C4)C2)C3)cc1 (stereo not given) | 0.493 µM
79 | Clc1ccc(Cl)c(OCCCCN2CCNCC2)c1 | 9.58 µM
80 | COc1c(Cl)cc(Cl)cc1/C=C/C(=O)c1ccc(NC(=O)c2cccs2)cc1 | 1.31 µM
81 | CC(C)CCNc1nc(-c2ccco2)c2c(c1C#N)CCCC2 | 11.3 µM
82 | Cc1ccc(C(=O)NC(=C(Cl)Cl)S(=O)(=O)c2ccc(C)cc2)cc1 | 5.16 µM
83 | O=c1c2ccccc2nc(/C=C/c2ccccc2)n1-c1ccccc1O | 10.7 µM
84 | O=C(/C=C/c1ccc(F)cc1)c1cc(Br)ccc1O | 14.1 µM
85 | CCN1CCN(c2cc(C)c3cc(NC(=S)N4CCN(c5ccc(F)cc5)CC4)ccc3n2)CC1 | 4.67 µM
86 | Cc1ccc(-n2c(-c3cccs3)nc3ccccc3c2=O)cc1 | 3.36 µM
87 | O=C(Nc1ccccc1)Nc1ccc(O)c2ccccc12 | 3.94 µM
88 | O=Nc1c(O)n(Cc2ccc(Cl)c(Cl)c2)c2ccccc12 | 6.85 µM

Row | Structure (SMILES) | AC50
89 | COc1cc(C2NCC(c3ccc(Cl)cc3Cl)c3c2[nH]c2ccccc32)cc(OC)c1OC (stereo not given) | 18.7 µM
90 | O=C(NNC1=C(C(=O)C(F)(F)F)CCC1)c1ccc(Cl)cc1 | 4.25 µM
91 | COc1ccc(CCNC(=O)c2coc(=O)c(Br)c2)cc1 | 15 µM
92 | c1cn2c(NC3CCCCC3)c(-c3ccc(SC4CCCCC4)cc3)nc2cn1 | 3.26 µM
93 | Cc1ccc(COc2ccc(Br)cc2/C=N/O)cc1 | 5.23 µM
94 | COC(=O)c1cc(=O)n(Cc2ccc(F)cc2)c(=Nc2ccccc2)s1 | 5.87 µM
95 | O=C(/C=C/c1ccc2c(c1)OCO2)NCCSCc1ccc(Cl)cc1 | 0.957 µM
96 | CCC(C)n1c(O)c(/C=N/Nc2ccccc2)c(=O)[nH]c1=S (stereo not given) | 3.58 µM
97 | O=C(Nc1ccc(-c2csc(Nc3cccc(C(F)(F)F)c3)n2)cc1)c1ccccc1 | 1.96 µM
98 | O=C(Cn1c2ccccc2c(=O)c2ccccc21)N/N=C/c1ccc(N2CCCC2)c([N+](=O)[O-])c1 | 2.43 µM
99 | O=C(Nc1ccc(Cl)c(Cl)c1)Nc1ccccc1NS(=O)(=O)c1cccs1 | 13.6 µM
100 | C/C(NC(=O)c1cccc(F)c1)=C1/C(=O)C[C@@H]2[C@H]1C2(C)C | 2.13 µM
101 | Cc1ccc(NCc2ccc([N+](=O)[O-])s2)cc1 | > 19.5 µM (inactive)
102 | CN1CCC(OC(=O)c2cccc(Cl)c2)CC1 | 3.33 µM
103 | Cc1cc([N+](=O)[O-])nn1CC(=O)N/N=C/c1ccc(O)cc1O | 5.4 µM
104 | CC(C)(C)[C@@H]1CCC(=O)N(CC[C@H](Sc2ccc(Br)cc2)c2ccccc2)CC1 | 3.38 µM
105 | Cc1cccc(-c2cc3nc4c(c(NCc5ccco5)n3n2)CCCC4)c1 | 7.25 µM
106 | COc1ccc(C(=O)NNc2ccccc2)cc1OC | 1.83 µM
107 | COc1cc(OC)cc(-c2sc3ccc(OC)cc3c2C#CCO)c1 | 6.89 µM
108 | CCOC(=O)c1c(-c2ccc(Cl)cc2)csc1NC(=O)CNCc1ccco1 | 5.2 µM
109 | COc1ccc(C)cc1Nc1n[n+](-c2ccccc2)c(-c2c(OC)ccc3ccccc23)s1 | 6.93 µM
110 | Cc1cc(O)c(C(C)C)cc1C1(c2cc(C(C)C)c(O)cc2C)OC(=O)c2ccccc21 | 3.23 µM
